Data from publication PMC3140938 (Analytical and Bioanalytical Chemistry, 2011).
“Also recorded” adds a separate entry of the source. Where two headings read alike, the source gives them in different places.

Tests used:
[1] = target: T1, human glucocorticoid receptor alpha (hGRα) (Homo sapiens, UniProt P04150); test: cell-based; format: cell-based
T1 sequence (P04150 1-777): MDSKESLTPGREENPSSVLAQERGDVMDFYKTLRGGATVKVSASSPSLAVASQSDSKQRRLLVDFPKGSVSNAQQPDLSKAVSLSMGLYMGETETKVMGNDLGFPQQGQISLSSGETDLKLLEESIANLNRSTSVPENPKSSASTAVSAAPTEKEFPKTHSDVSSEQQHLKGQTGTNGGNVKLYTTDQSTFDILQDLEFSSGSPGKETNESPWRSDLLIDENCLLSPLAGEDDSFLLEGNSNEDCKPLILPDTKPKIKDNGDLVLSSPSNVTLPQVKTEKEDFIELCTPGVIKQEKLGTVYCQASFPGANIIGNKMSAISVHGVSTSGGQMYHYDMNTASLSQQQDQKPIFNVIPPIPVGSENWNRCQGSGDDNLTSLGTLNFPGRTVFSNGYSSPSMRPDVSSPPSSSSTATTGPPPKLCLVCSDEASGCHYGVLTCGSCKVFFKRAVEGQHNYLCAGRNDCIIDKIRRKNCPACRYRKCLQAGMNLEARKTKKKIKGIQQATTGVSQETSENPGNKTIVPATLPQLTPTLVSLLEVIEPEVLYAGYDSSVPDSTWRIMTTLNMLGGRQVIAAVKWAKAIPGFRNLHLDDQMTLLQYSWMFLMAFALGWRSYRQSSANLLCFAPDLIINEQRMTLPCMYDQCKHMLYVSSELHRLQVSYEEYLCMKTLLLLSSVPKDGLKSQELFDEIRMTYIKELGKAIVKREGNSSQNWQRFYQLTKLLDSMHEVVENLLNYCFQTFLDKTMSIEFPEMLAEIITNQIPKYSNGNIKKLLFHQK

[2] = target: T2, hGRα (Homo sapiens, UniProt P04150); test: cell-based; format: cell-based; conditions: for RCP (relative corticoid potency): ratio EC50 of dexamethasone / EC50 of compound
T2 sequence (P04150 1-777): T1 sequence (P04150 1-777)

[3] = target: T1, human glucocorticoid receptor alpha (hGRα); format: cell-based; conditions: yeast
[4] = system: AR; conditions: yeast-based AR bioassay; cited from earlier work
[5] = system: AR; conditions: U2-OS-based CALUX analogue (AR); cited from earlier work
[6] = target: T2, hGRα; format: cell-based; conditions: GR-CALUX, co-exposure with 1 or 10 nM dexamethasone
[7] = system: PR; conditions: yeast-based PR bioassay; cited from earlier work
[8] = co-exposure with budesonide (5 or 50 μM)
[9] = GR-CALUX, agonism, 24 h exposure
[10] = co-exposure with 150 or 500 μM dexamethasone

**Q.** With `CC(=O)OCC(=O)[C@@]1(O)CC[C@H]2[C@@H]3CCC4=CC(=O)CC[C@]4(C)[C@@]3(F)[C@@H](O)C[C@@]21C` [Fludrocortisone-21-acetate, fludrocortisone-21-acetate] as the molecule, how does the EC50 [1] read?
**A.** The EC50 was “Not active”.

**Q.** What about the “agonistic response (luciferase activity), in words” value ([2]; compound alone, GR-CALUX) of the same molecule?
**A.** The value was “active”.

**Q.** With `C[C@]12C[C@H](O)[C@H]3[C@@H](CCC4=CC(=O)CC[C@@]43C)[C@@H]1CC[C@@H]2C(=O)CO` [Corticosterone, corticosterone] as the molecule, how does the “RCP (relative corticoid potency)” value [1] read?
**A.** Its value is 1.7.

**Q.** And the “agonistic response (production of yEGFP), in words” value [1]?
**A.** Its value is “dose-related increase in the production of yEGFP”.

**Q.** What about the EC50 ([1]; EC50) of the same molecule?
**A.** The EC50 was 71000 nM.

**Q.** What about the EC50 [2] of the same molecule?
**A.** Its EC50 is 80 nM.

**Q.** And the “agonistic response (luciferase activity), in words” value ([2]; compound alone, GR-CALUX)?
**A.** Its value is “dose-related increase in luciferase activity”.

**Q.** And the “RCP (relative corticoid potency)” value ([2]; GR-CALUX)?
**A.** Its value is 0.03.

**Q.** Which “GR antagonism, in words” value [3, 8] does the source give for `Clc1ccc(-c2ccc(Cl)cc2Cl)c(Cl)c1` [PCB47] here?
**A.** The value was “only act as GR antagonists”.

**Q.** Which EC50 [1] does the source give for `C[C@]12CCC(=O)C=C1CC[C@@H]1[C@@H]2C(=O)C[C@@]2(C)[C@H]1CC[C@]2(O)C(=O)CO` [Cortisone, cortisone] here?
**A.** Its EC50 is “Not active”.

**Q.** And the “RCP (relative corticoid potency)” value [1]?
**A.** The value was 0.0.

**Q.** And the “agonistic response (production of yEGFP), in words” value [1]?
**A.** Its value is “no response”.

**Q.** And the EC50 [2, 9]?
**A.** Its EC50 is “Not active”.

**Q.** And the “agonistic response (luciferase activity), in words” value ([2]; compound alone, GR-CALUX)?
**A.** Its value is “no response”.

**Q.** And the “RCP (relative corticoid potency)” value ([2]; GR-CALUX)?
**A.** The value was 0.

**Q.** What does the source list for `CCCC1O[C@@H]2C[C@H]3[C@@H]4CCC5=CC(=O)C=C[C@]5(C)[C@H]4[C@@H](O)C[C@]3(C)[C@]2(C(=O)CO)O1` (stereo partly drawn) [Budesonide, budesonide]?
**A.** agonistic response (production of yEGFP), in words [1]: dose-related increase in the production of yEGFP; also recorded: much more potent than Dex; limit of detection [1]: 0.5 µM; agonistic response (luciferase activity), in words ([2]; compound alone, GR-CALUX): equally potent

**Q.** With `C[C@@H]1C[C@H]2[C@@H]3CCC4=CC(=O)C=C[C@]4(C)[C@@]3(F)[C@@H](O)C[C@]2(C)[C@@]1(O)C(=O)CO` [Dexamethasone, dexamethasone] as the molecule, how does the “agonistic response (production of yEGFP), in words” value [1] read?
**A.** The value was “dose-related increase in the production of yEGFP”.

**Q.** What about the “agonistic response (luciferase activity), in words” value [2] of the same molecule?
**A.** The value was “dose-related increase in luciferase activity”.

**Q.** Which results are given for `Clc1ccc(Cl)c(-c2cc(Cl)cc(Cl)c2Cl)c1` [PCB92]?
**A.** agonistic response (production of yEGFP), in words [1]: slight agonistic effect; GR antagonism, in words [3, 8]: acts as a GR antagonist

**Q.** With `C[C@]12CC[C@H]3[C@@H](CCC4=CC(=O)CC[C@@]43C)[C@@H]1CC[C@@H]2O` [T, 17β-testosterone] as the molecule, how does the EC50 [4] read?
**A.** The EC50 was […].

**Q.** For `C[C@]12CC[C@@H]3c4ccc(O)cc4CC[C@H]3[C@@H]1CC[C@@H]2O` [17β-Estradiol (E2), 17β-estradiol], which EC50 [1] is on record?
**A.** Its EC50 is “Not active”.

**Q.** And the “RCP (relative corticoid potency)” value [1]?
**A.** Its value is 0.0.

**Q.** And the “agonistic response (production of yEGFP), in words” value [1]?
**A.** The value was “no agonistic response”.

**Q.** And the EC50 [2, 9]?
**A.** The EC50 was “Not active”.

**Q.** And the “RCP (relative corticoid potency)” value ([2]; GR-CALUX)?
**A.** The value was 0.

**Q.** For `C[C@]12C=CC(=O)C=C1CC[C@@H]1[C@@H]2[C@@H](O)C[C@@]2(C)[C@H]1CC[C@]2(O)C(=O)CO` [Prednisolone, prednisolone], which “agonistic response (production of yEGFP), in words” value [1] is on record?
**A.** Its value is “dose-related increase in the production of yEGFP”.

**Q.** And the “agonistic response (luciferase activity), in words” value [2]?
**A.** The value was “dose-related increase in luciferase activity”.

**Q.** Which EC50 [1] does the source give for `C[C@]12C=CC(=O)C=C1CC[C@H]1[C@@H]3C[C@@H](O)[C@](O)(C(=O)CO)[C@@]3(C)C[C@H](O)[C@@]12F` [Triamcinolone, triamcinolone] here?
**A.** Its EC50 is “Active^a”.

**Q.** What about the “RCP (relative corticoid potency)” value [1] of the same molecule?
**A.** The value was “Active”.

**Q.** And the EC50 [2]?
**A.** Its EC50 is 19 nM.

**Q.** What about the “RCP (relative corticoid potency)” value ([2]; GR-CALUX) of the same molecule?
**A.** The value was 0.1.

**Q.** With `CC#C[C@]1(O)CC[C@H]2[C@@H]3CCC4=CC(=O)CCC4=C3[C@@H](c3ccc(N(C)C)cc3)C[C@@]21C` [Mifepristone, mifepristone] as the molecule, how does the EC50 [2] read?
**A.** Its EC50 is “Not active^b”.

**Q.** And the “GR antagonism, in words” value [3, 10]?
**A.** The value was “only slightly acted as GR antagonists”.

**Q.** What about the “GR antagonism, in words” value [6] of the same molecule?
**A.** The value was “pure GR antagonists”.

**Q.** Which results are given for `Clc1ccc(Cl)c(-c2cc(Cl)c(Cl)cc2Cl)c1` [PCB101]?
**A.** agonistic response (production of yEGFP), in words [1]: agonistic effect that is almost comparable with that of triamcinolone and progesterone; inhibition of the response caused by 5 μM budesonide, in words ([3]; co-exposure with 5 μM budesonide): almost fully inhibiting; inhibition of the response caused by 50 μM budesonide ([3]; co-exposure with 50 μM budesonide): 50%; GR antagonism, in words [3, 8]: strongest GR antagonist

**Q.** Which results are given for `C[C@]12CCC(=O)C=C1CC[C@@H]1[C@@H]2[C@@H](O)C[C@]2(C=O)[C@@H](C(=O)CO)CC[C@@H]12` [Aldosterone]?
**A.** RCP (relative corticoid potency) [1]: 0.2; agonistic response (production of yEGFP), in words [1]: dose-related increase in the production of yEGFP; EC50 ([1]; EC50): 705000 nM; EC50 [2]: 495 nM; agonistic response (luciferase activity), in words ([2]; compound alone, GR-CALUX): dose-related increase in luciferase activity; RCP (relative corticoid potency) ([2]; GR-CALUX): 0.004

**Q.** With `Clc1ccc(-c2c(Cl)cc(Cl)cc2Cl)c(Cl)c1` [PCB100] as the molecule, how does the “GR antagonism, in words” value [3, 8] read?
**A.** The value was “only act as GR antagonists”.

**Q.** Which “GR antagonism, in words” value [3, 10] does the source give for `CN(C)c1ccc([C@H]2C[C@@]3(C)[C@@H](CC[C@@]3(O)C#Cc3ccc(S(C)(=O)=O)cc3)[C@@H]3CCC4=CC(=O)CCC4=C32)cc1` [Org 34850] here?
**A.** Its value is “only slightly acted as GR antagonists”.

**Q.** And the “GR antagonism, in words” value [6]?
**A.** The value was “pure GR antagonist”.

**Q.** For `C[C@]12CCC(=O)C[C@@H]1CC[C@@H]1[C@@H]2CC[C@]2(C)[C@@H](O)CC[C@@H]12` [5α-Dihydrotestosterone, 5α-dihydrotestosterone], which EC50 [2] is on record?
**A.** Its EC50 is “Not active”.

**Q.** For `C[C@]12CCC(=O)C=C1CC[C@@H]1[C@@H]2[C@@H](O)C[C@@]2(C)[C@H]1CC[C@]2(O)C(=O)CO` [Cortisol, cortisol], which “agonistic response (production of yEGFP), in words” value [1] is on record?
**A.** The value was “dose-related increase in the production of yEGFP”.

**Q.** And the “agonistic response (luciferase activity), in words” value ([2]; compound alone, GR-CALUX)?
**A.** The value was “dose-related increase in luciferase activity”.

**Q.** With `C[C@H]1C[C@H]2[C@@H]3CCC4=CC(=O)C=C[C@]4(C)[C@@]3(F)[C@@H](O)C[C@]2(C)[C@@]1(O)C(=O)CO` [Betamethasone, betamethasone] as the molecule, how does the “agonistic response (production of yEGFP), in words” value [1] read?
**A.** The value was “dose-related increase in the production of yEGFP”.

**Q.** And the “agonistic response (luciferase activity), in words” value [2]?
**A.** Its value is “dose-related increase in luciferase activity”.
